# Source: US12162892B2, “CD16a binding agents and uses thereof” (KLEO PHARMACEUTICALS, INC., priority 2018, dated 2024)
# pKd: −log10 of the molar value.
# Molecular target: T1, CD16a158V (Homo sapiens, UniProt P08637, F176V)
# Experiment: Biotinylated Ligand ELISA Assay
# Assay type: binding
# Conditions: Biotinylated CD16a protein at 10 nM
# Method: (§1) Coat ELISA plates (Costar 3922) using Neutravidin (Thermo 31000) at 5 μg/ml (100 μl/well) for 1 hour at 37° C. Plates were washed 4 times with PBST (PBS, 0.05% Tween 20-200 μl, 1 minute/wash) then blocked using 200 μl 5% bovine serum albumin (BSA, Heat Shock, Fraction V-American Bio AB01088-00100) in PBST for 2 hours at 25° C. with moderate shaking. BSA was removed and plates were washed. Biotinylated ligands diluted in PBSTB (PBST+0.1% BSA) were then added (100 μl/well) and incubated for 1 hour at 25° C. with gentle shaking. Ligands were removed and plates were washed. Any remaining unoccupied neutravidin binding sites were blocked by adding 100 μM Biotin (Fisher BP232-1) (100 μl/well) and incubated for 1 hour at 25° C. with gentle shaking. Plates were then washed. […] Protein was removed and plates were washed. Streptavidin-HRP (Invitrogen 434323) diluted 1:5000 in PBSTB was added (100 μl/well) and incubated for 1 hour at 25° C. with gentle shaking. Wash plates. Substrate (Super Signal ELISA Pico Chemiluminescent Substrate-Thermo 37069) was added (100 μl/well) and plates were incubated for 5 minutes at 25° C. with gentle shaking. Luminescence was then measured on the Biotek Synergy H1 microplate reader.
# T1 sequence (P08637 17-208 F176V): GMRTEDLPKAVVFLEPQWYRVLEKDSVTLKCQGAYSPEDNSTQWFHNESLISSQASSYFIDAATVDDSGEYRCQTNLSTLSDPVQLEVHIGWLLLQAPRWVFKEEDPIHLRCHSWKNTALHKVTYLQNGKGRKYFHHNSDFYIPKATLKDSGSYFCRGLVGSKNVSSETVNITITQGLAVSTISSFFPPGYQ
row,Compound,Biotinylated Ligand ELISA-CD16a158V Binding (RLU)
1,O=C(CCCC[C@@H]1SC[C@@H]2NC(=O)N[C@@H]21)NCCOCCOCCOCCOCCOCCOCCOCCOCCNC(=O)c1ccc(S(=O)(=O)N2CCC3(CC2)NC(=O)N(c2ccccc2)C3=O)cc1 [Compound I-22],"B (a relative luminescence value (RLU) of 10,000-100,000)"

# Tested on: CD16a158V
# Experiment: NHS-Ester ELISA Assay
# Assay type: binding
# Conditions: NHS-Ester ligands 250 μM; 10 nM biotinylated CD16a protein
# Method: (§2) Pretreat ELISA plates (Costar 3922) using 200 μl […] (BSA, Heat Shock, Fraction V-American Bio AB01088-00100) in PBS for 2 hours at 25° C. with moderate shaking. BSA was removed and plates were washed. NHS-Ester ligands were diluted in PBS to 250 μM then added (100 μl/well) and incubated for 1 hour at 37° C. […] Plates are removed from the incubator and washed. CD16a/Streptavidin.HRP mixture was added to the plates (100 μl/well) and incubated for 1 hour at 25° C. with gentle shaking. Wash plates. Substrate (Super Signal ELISA Pico Chemiluminescent Substrate-Thermo 37069) was added (100 μl/well) and plates were incubated for 5 minutes at 25° C. with gentle shaking. Luminescence was then measured on the Biotek Synergy H1 microplate reader.
row,Compound,NHS ester ELISA-CD16a158V Binding (RLU)
1,COc1ccc(OC)c(N2CC(C(=O)Nc3ccc(-c4cn(CCOCCOCCOCCOCCOCCOCCOCCOCCOCCOCCOCCOCCC(=O)ON5C(=O)CCC5=O)nn4)cc3)CC2=O)c1 (stereo not shown) [Compound I-25],"C (a relative luminescence value (RLU) of 1,000-10,000)"
2,COc1ccc(OC)c(N2C(=O)NC3(CCN(C(=O)Nc4cccc(-c5cn(CCOCCOCCOCCOCCOCCOCCOCCOCCOCCOCCOCCOCCC(=O)ON6C(=O)CCC6=O)nn5)c4)CC3)C2=O)c1 [Compound I-1],"C (a relative luminescence value (RLU) of 1,000-10,000)"
3,O=C(CCOCCOCCOCCOCCOCCOCCOCCOCCOCCOCCOCCOCCn1cc(-c2ccc(NC(=O)N3CCC4(CC3)NC(=O)N(Cc3ccccc3)C4=O)cc2)nn1)ON1C(=O)CCC1=O [Compound I-2],"C (a relative luminescence value (RLU) of 1,000-10,000)"
4,COc1ccc(OC)c(N2CC(C(=O)Nc3ccc(-c4cn(CCOCCOCCOCCOCCOCCOCCOCCOCCC(=O)ON5C(=O)CCC5=O)nn4)cc3)CC2=O)c1 (stereo not shown) [Compound I-26],"C (a relative luminescence value (RLU) of 1,000-10,000)"
5,O=C(CCOCCOCCOCCOCCOCCOCCOCCOCCOCCOCCOCCOCCNC(=O)c1cnc(N2CCC3(CC2)NC(=O)N(Cc2ccccc2)C3=O)nc1)ON1C(=O)CCC1=O [Compound I-8],"B (a relative luminescence value (RLU) of 10,000-100,000)"
6,O=C(CCOCCOCCOCCOCCOCCOCCOCCOCCOCCOCCOCCOCCn1cc(-c2cccc(NC(=O)N3CCC4(CC3)NC(=O)N(c3ccccc3)C4=O)c2)nn1)ON1C(=O)CCC1=O [Compound I-9],"B (a relative luminescence value (RLU) of 10,000-100,000)"
7,O=C(CCOCCOCCOCCOCCOCCOCCOCCOCCOCCOCCOCCOCCn1cc(-c2cccc(-c3cnc(N4CCC5(CC4)NC(=O)N(Cc4ccccc4)C5=O)nc3)c2)nn1)ON1C(=O)CCC1=O [Compound I-6],"B (a relative luminescence value (RLU) of 10,000-100,000)"
8,O=C(CCOCCOCCOCCOCCOCCOCCOCCOCCOCCOCCOCCOCCn1cc(-c2cnc(N3CCC4(CC3)NC(=O)N(Cc3ccccc3)C4=O)nc2)nn1)ON1C(=O)CCC1=O [Compound I-7],"B (a relative luminescence value (RLU) of 10,000-100,000)"

# Molecular target: T1, CD16a158V
# Experiment: Microscale Thermophoresis
# Assay type: binding
# Conditions: read-out: MST-CD16a158V KD
# Method: Target proteins (poly-histidine tagged, 600 nM) were fluorescently labeled combination with an equal volume of dye (200 nM, His-Tag labeling kit RED-tris-NTA NanoTemper: MO-L008) PBST. The mixture rotated in the dark for 45 min before being spun down at 12000 rpm for 15 min to remove uncomplexed material. The fluorescence of the removed supernatant was adjusted to for a test concentration of 40-80 nM (2× the final measured). Test ligands were prepared across a 12-point dilution series in a 96-well PCR plate at a volume of 20 uL at 2× the concentration desired for testing (0.2% BSA in PBST). The dilution series was then combined with an equal volume of the labeled target at 2× the concentration desired for testing. Capillaries were added to the wells of the combined target/ligand complex and measured by MST. Measurements were taken using a Nanotemper Monolith NT.115, and the data was analyzed using NanoTemper MO.Control software.
row,Compound,pKd
1,COc1ccc(N2CC(C(=O)Nc3ccc(-c4cn(CCOCCOCCOCCOCCOCCOCCOCCOCCNC(=O)CCCC[C@@H]5SC[C@@H]6NC(=O)N[C@@H]65)nn4)cc3)CC2=O)cc1 (stereo partly shown) [Compound I-33],6.30 to 7.00
2,COc1ccc(OC)c(N2CC(C(=O)Nc3ccc(Cn4cnc(CCOCCOCCOCCOCCOCCOCCOCCOCCNC(=O)CCCC[C@@H]5SC[C@@H]6NC(=O)N[C@@H]65)n4)cc3)CC2=O)c1 (stereo partly shown) [Compound I-38],6.30 to 7.00
3,COc1ccccc1N1CC(C(=O)Nc2ccc(-c3cn(CCOCCOCCOCCOCCOCCOCCOCCOCCNC(=O)CCCC[C@@H]4SC[C@@H]5NC(=O)N[C@@H]54)nn3)cc2)CC1=O (stereo partly shown) [Compound I-35],6.30 to 7.00
4,COc1ccc(OC)c(N2CC(C(=O)Nc3cccc(-c4cn(CCOCCOCCOCCOCCOCCOCCOCCOCCNC(=O)CCCC[C@@H]5SC[C@@H]6NC(=O)N[C@@H]65)nn4)c3)CC2=O)c1 (stereo partly shown) [Compound I-40],6.30 to 7.00
5,COc1ccc(OC)c(N2CC(C(=O)Nc3ccc(CC4N=NC(COCCOCCOCCOCCOCCOCCOCCOCCNC(=O)CCCC[C@@H]5SC[C@@H]6NC(=O)N[C@@H]65)=N4)cc3)CC2=O)c1 (stereo partly shown) [Compound I-41],6.00 to 6.30
6,CCOc1ccc(N2CC(C(=O)N3CCC(C(=O)NCCOCCOCCOCCOCCOCCOCCOCCOCCNC(=O)CCCC[C@@H]4SC[C@@H]5NC(=O)N[C@@H]54)CC3)CC2=O)cc1 (stereo partly shown) [Compound I-37],6.00 to 6.30
7,COc1cccc(N2CC(C(=O)Nc3ccc(-c4cn(CCOCCOCCOCCOCCOCCOCCOCCOCCNC(=O)CCCC[C@@H]5SC[C@@H]6NC(=O)N[C@@H]65)nn4)cc3)CC2=O)c1 (stereo partly shown) [Compound I-34],6.30 to 7.00

# Molecular target: T2, CD16a158F (Homo sapiens, UniProt P08637)
# Experiment: Biotinylated Ligand ELISA Assay
# Assay type: binding
# Parameters: purchased Acro Biosystems CDA-H82E8
# Conditions: Biotinylated CD16a protein at 10 nM
# Method: as §1
# T2 sequence (P08637 17-208 limits assumed): as the sequence (P08637 17-208 F176V) above, with V160F counted along it
row,Compound,Biotinylated Ligand ELISA-CD16a158F Binding (RLU)
1,O=C(CCCC[C@@H]1SC[C@@H]2NC(=O)N[C@@H]21)NCCOCCOCCOCCOCCOCCOCCOCCOCCNC(=O)c1ccc(S(=O)(=O)N2CCC3(CC2)NC(=O)N(c2ccccc2)C3=O)cc1 [Compound I-22],"B (a relative luminescence value (RLU) of 10,000-100,000)"

# Molecular target: T2, CD16a158F
# Experiment: NHS-Ester ELISA Assay
# Assay type: binding
# Parameters: purchased Acro Biosystems CDA-H82E8
# Conditions: NHS-Ester ligands 250 μM; 10 nM biotinylated CD16a protein
# Method: as §2
row,Compound,NHS ester ELISA-CD16a158F Binding (RLU)
1,COc1ccc(OC)c(N2CC(C(=O)Nc3ccc(-c4cn(CCOCCOCCOCCOCCOCCOCCOCCOCCOCCOCCOCCOCCC(=O)ON5C(=O)CCC5=O)nn4)cc3)CC2=O)c1 (stereo not shown) [Compound I-25],"C (a relative luminescence value (RLU) of 1,000-10,000)"
2,COc1ccc(OC)c(N2C(=O)NC3(CCN(C(=O)Nc4cccc(-c5cn(CCOCCOCCOCCOCCOCCOCCOCCOCCOCCOCCOCCOCCC(=O)ON6C(=O)CCC6=O)nn5)c4)CC3)C2=O)c1 [Compound I-1],"B (a relative luminescence value (RLU) of 10,000-100,000)"
3,O=C(CCOCCOCCOCCOCCOCCOCCOCCOCCOCCOCCOCCOCCn1cc(-c2ccc(NC(=O)N3CCC4(CC3)NC(=O)N(Cc3ccccc3)C4=O)cc2)nn1)ON1C(=O)CCC1=O [Compound I-2],"B (a relative luminescence value (RLU) of 10,000-100,000)"
4,COc1ccc(OC)c(N2CC(C(=O)Nc3ccc(-c4cn(CCOCCOCCOCCOCCOCCOCCOCCOCCC(=O)ON5C(=O)CCC5=O)nn4)cc3)CC2=O)c1 (stereo not shown) [Compound I-26],"C (a relative luminescence value (RLU) of 1,000-10,000)"
5,O=C(CCOCCOCCOCCOCCOCCOCCOCCOCCOCCOCCOCCOCCNC(=O)c1cnc(N2CCC3(CC2)NC(=O)N(Cc2ccccc2)C3=O)nc1)ON1C(=O)CCC1=O [Compound I-8],"C (a relative luminescence value (RLU) of 1,000-10,000)"
6,O=C(CCOCCOCCOCCOCCOCCOCCOCCOCCOCCOCCOCCOCCn1cc(-c2cccc(NC(=O)N3CCC4(CC3)NC(=O)N(c3ccccc3)C4=O)c2)nn1)ON1C(=O)CCC1=O [Compound I-9],"B (a relative luminescence value (RLU) of 10,000-100,000)"
7,O=C(CCOCCOCCOCCOCCOCCOCCOCCOCCOCCOCCOCCOCCn1cc(-c2cccc(-c3cnc(N4CCC5(CC4)NC(=O)N(Cc4ccccc4)C5=O)nc3)c2)nn1)ON1C(=O)CCC1=O [Compound I-6],"B (a relative luminescence value (RLU) of 10,000-100,000)"
8,O=C(CCOCCOCCOCCOCCOCCOCCOCCOCCOCCOCCOCCOCCn1cc(-c2cnc(N3CCC4(CC3)NC(=O)N(Cc3ccccc3)C4=O)nc2)nn1)ON1C(=O)CCC1=O [Compound I-7],"C (a relative luminescence value (RLU) of 1,000-10,000)"
